Results: PubChem BioAssay AID248 (DTP/NCI, 2004)
Where “and” joins values, the source holds several entries; their conditions need not be identical. Equal entries are not always repeated. Toxic doses and inconclusive results are not listed. Rule as the data show it: active = T/C of 150% or more; inactive = T/C below 125%.

Test system: L1210 leukemia ip in BDF1 mice, survival T/C
Experiment: NCI In Vivo Anticancer Drug Screen. Data for tumor model L1210 Leukemia (intraperitoneal) in B6D2F1 (BDF1) mice
Details: endpoint: mean survival time, higher = longer survival
Method in brief: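 Tumor cells were implanted, animals were treated, and survival was followed. The result divides the treated measurement by the vehicle-control measurement.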

[1] = dose: 100.0 mg/kg/injection, schedule: Q01DX001 (ip), vehicle: saline
[2] = dose: 200.0 mg/kg/injection, schedule: Q01DX001 (ip), vehicle: saline
[3] = dose: 100.0 mg/kg/injection, schedule: Q01DX009 (ip), vehicle: saline
[4] = dose: 100.0 mg/kg/injection, schedule: Q04DX003 (ip), vehicle: saline with Tween-80
[5] = dose: 200.0 mg/kg/injection, schedule: Q04DX003 (ip), vehicle: saline with Tween-80
[6] = dose: 400.0 mg/kg/injection, schedule: Q04DX003 (ip), vehicle: saline with Tween-80
[7] = dose: 100.0 mg/kg/injection, schedule: Q04DX003 (ip), vehicle: Klucel (hydroxypropylcellulose) (HPC)
[8] = dose: 200.0 mg/kg/injection, schedule: Q04DX003 (ip), vehicle: Klucel (hydroxypropylcellulose) (HPC)
[9] = dose: 400.0 mg/kg/injection, schedule: Q04DX003 (ip), vehicle: Klucel (hydroxypropylcellulose) (HPC)
[10] = dose: 100.0 mg/kg/injection, schedule: Q01DX009 (ip), vehicle: saline with Tween-80
[11] = dose: 200.0 mg/kg/injection, schedule: Q01DX009 (ip), vehicle: saline with Tween-80
[12] = dose: 100.0 mg/kg/injection, schedule: Q01DX001 (ip), vehicle: Klucel (hydroxypropylcellulose) (HPC)
[13] = dose: 200.0 mg/kg/injection, schedule: Q01DX001 (ip), vehicle: Klucel (hydroxypropylcellulose) (HPC)
[14] = dose: 400.0 mg/kg/injection, schedule: Q01DX001 (ip), vehicle: Klucel (hydroxypropylcellulose) (HPC)
[15] = dose: 400.0 mg/kg/injection, schedule: Q01DX001 (ip), vehicle: saline

Measured: T/C

COc1ccc(/C=C(\S)C(=O)O)cc1
inactive: [1] 96 % of control | [2] 118 % of control | dose: 1040.0 mg/kg/injection, schedule: Q01DX001 (ip), vehicle: saline 111 % of control

CC(C)(C)NC[Si](C)(C)C
inactive: [3] 92 % of control

CCOC(=O)Cc1cn(C)c2ccccc12
inactive: [4] 93 % of control | [5] 91 % of control | [6] 96 % of control

COc1cc(NS(=O)(=O)c2ccccc2)ccc1C
inactive: dose: 100.0 mg/kg/injection, schedule: Q01DX009 (ip), vehicle: Klucel (hydroxypropylcellulose) (HPC) 92 % of control | [7] 97 % of control | dose: 200.0 mg/kg/injection, schedule: Q01DX009 (ip), vehicle: Klucel (hydroxypropylcellulose) (HPC) 91 % of control | [8] 90 % of control | dose: 400.0 mg/kg/injection, schedule: Q01DX009 (ip), vehicle: Klucel (hydroxypropylcellulose) (HPC) 91 % of control | [9] 87 % of control

CC12CCC3c4ccc(OCC5CO5)cc4CCC3C1CCC2=O (stereo not drawn)
inactive: dose: 50.0 mg/kg/injection, schedule: Q01DX009 (ip), vehicle: saline with Tween-80 97 % of control | [10] 97 % of control | [11] 94 % of control

ClCC[N-]CC[N-]CCCl.[Cl][Pt+2][Cl]
inactive: [12] 113 % of control | [13] 107 % of control | [8] 104 % of control | [9] 88 % of control

O=C1C(Cl)=C(Cl)C(=O)c2ccccc21
inactive: dose: 0.5 mg/kg/injection, schedule: Q01DX009 (ip), vehicle: Klucel (hydroxypropylcellulose) (HPC) 108 % of control | dose: 1.0 mg/kg/injection, schedule: Q01DX009 (ip), vehicle: Klucel (hydroxypropylcellulose) (HPC) 110 % of control | dose: 1.0 mg/kg/injection, schedule: Q04DX003 (ip), vehicle: Klucel (hydroxypropylcellulose) (HPC) 105 % of control | dose: 2.0 mg/kg/injection, schedule: Q01DX009 (ip), vehicle: Klucel (hydroxypropylcellulose) (HPC) 108 % of control | dose: 2.0 mg/kg/injection, schedule: Q04DX003 (ip), vehicle: Klucel (hydroxypropylcellulose) (HPC) 108 % of control | dose: 4.0 mg/kg/injection, schedule: Q04DX003 (ip), vehicle: Klucel (hydroxypropylcellulose) (HPC) 110 % of control | dose: 5.0 mg/kg/injection, schedule: Q01DX009 (ip), vehicle: saline with Tween-80 93 % of control | dose: 10.0 mg/kg/injection, schedule: Q01DX009 (ip), vehicle: saline with Tween-80 97 % of control | dose: 20.0 mg/kg/injection, schedule: Q01DX009 (ip), vehicle: saline with Tween-80 97 % of control

O=S1(=O)CC2C3C=CC(O3)C21 (stereo not drawn)
inactive: dose: 75.0 mg/kg/injection, schedule: Q01DX001 (ip), vehicle: carboxymethylcellulose (CMC) 102 % of control | dose: 150.0 mg/kg/injection, schedule: Q01DX001 (ip), vehicle: carboxymethylcellulose (CMC) 98 % of control

O=C1CC2(CCN(Cc3ccccc3)CC2)C(=O)N1Nc1ccccc1
inactive: [12] 105 % of control | [13] 100 % of control | [14] 100 % of control

O=C(/C=C\c1ccccc1[N+](=O)[O-])C(=O)/C=C/c1ccccc1[N+](=O)[O-]
inactive: [12] 93 % of control | [13] 92 % of control | [14] 88 % of control

COC1OC(CO)C(O)C(O)C1NC(C)=O (stereo not drawn)
inactive: [1] 106 % of control | [2] 103 % of control | [15] 104 % of control

O=c1c2ccccc2c(-c2ccccc2)nn1Cc1ccccc1
inactive: [10] 93 % of control | [11] 102 % of control | dose: 400.0 mg/kg/injection, schedule: Q01DX009 (ip), vehicle: saline with Tween-80 104 % of control

O=NN(Cc1ccc(Cl)cc1)C(=O)NCc1ccc(Cl)cc1
inactive: dose: 400.0 mg/kg/injection, schedule: Q01DX Z (ip), vehicle: carboxymethylcellulose (CMC) 104 % of control

C/C(=N\NC(N)=S)c1ccccc1
inactive: dose: 5.0 mg/kg/injection, schedule: Q01DX009 (ip), vehicle: Klucel (hydroxypropylcellulose) (HPC) 97 % of control | dose: 5.0 mg/kg/injection, schedule: Q04DX003 (ip), vehicle: Klucel (hydroxypropylcellulose) (HPC) 97 % of control | dose: 10.0 mg/kg/injection, schedule: Q01DX009 (ip), vehicle: Klucel (hydroxypropylcellulose) (HPC) 110 % of control | dose: 10.0 mg/kg/injection, schedule: Q04DX003 (ip), vehicle: Klucel (hydroxypropylcellulose) (HPC) 103 % of control | dose: 20.0 mg/kg/injection, schedule: Q01DX009 (ip), vehicle: Klucel (hydroxypropylcellulose) (HPC) 105 % of control | dose: 20.0 mg/kg/injection, schedule: Q04DX003 (ip), vehicle: Klucel (hydroxypropylcellulose) (HPC) 98 % of control and 117 % of control | dose: 30.0 mg/kg/injection, schedule: Q04DX003 (ip), vehicle: Klucel (hydroxypropylcellulose) (HPC) 95 % of control | dose: 40.0 mg/kg/injection, schedule: Q04DX003 (ip), vehicle: Klucel (hydroxypropylcellulose) (HPC) 120 % of control

C=CC1=C(C)C(=O)N/C1=C\c1[nH]c(Cc2[nH]c(/C=C3/NC(=O)C(C(C)SC(C)=O)=C3C)cc2CCC(=O)O)c(CCC(=O)O)c1C (stereo not drawn)
inactive: dose: 100.0 mg/kg/injection, schedule: Q04DX002 (ip), vehicle: Klucel (hydroxypropylcellulose) (HPC) 101 % of control | dose: 200.0 mg/kg/injection, schedule: Q04DX002 (ip), vehicle: Klucel (hydroxypropylcellulose) (HPC) 108 % of control | dose: 400.0 mg/kg/injection, schedule: Q04DX002 (ip), vehicle: Klucel (hydroxypropylcellulose) (HPC) 97 % of control

CC(=O)N(CC(=O)O)c1ccccc1
inactive: [4] 101 % of control | [5] 103 % of control | [6] 98 % of control

Cc1cc(C)c(-n2c(C)cc(C(=O)O)c2C)c(C)c1C(=O)O
inactive: dose: 100.0 mg/kg/injection, schedule: Q01DX001 (ip), vehicle: alcohol 102 % of control | dose: 200.0 mg/kg/injection, schedule: Q01DX001 (ip), vehicle: alcohol 96 % of control | dose: 400.0 mg/kg/injection, schedule: Q01DX001 (ip), vehicle: alcohol 97 % of control

CC(C)N(C)C(C)(C)CO
inactive: dose: 100.0 mg/kg/injection, schedule: Q04DX003 (ip), vehicle: saline sonified 92 % of control | dose: 200.0 mg/kg/injection, schedule: Q04DX003 (ip), vehicle: saline sonified 106 % of control

COC(=O)CCN1CC1(C)C (stereo not drawn)
inactive: dose: 25.0 mg/kg/injection, schedule: Q04DX003 (ip), vehicle: Klucel (hydroxypropylcellulose) (HPC) 96 % of control | dose: 50.0 mg/kg/injection, schedule: Q04DX003 (ip), vehicle: Klucel (hydroxypropylcellulose) (HPC) 98 % of control | [7] 96 % of control

O=C1OC(/C=C/c2ccccc2)=NC/1=C\c1ccc(O)cc1
inactive: dose: 100.0 mg/kg/injection, schedule: Q04DX002 (ip), vehicle: saline with Tween-80 104 % of control | dose: 200.0 mg/kg/injection, schedule: Q04DX002 (ip), vehicle: saline with Tween-80 93 % of control | dose: 400.0 mg/kg/injection, schedule: Q04DX002 (ip), vehicle: saline with Tween-80 93 % of control

O=C(NN=C1CCCC1)c1ccccc1O
inactive: [3] 102 % of control | dose: 200.0 mg/kg/injection, schedule: Q01DX009 (ip), vehicle: saline 102 % of control | dose: 400.0 mg/kg/injection, schedule: Q01DX009 (ip), vehicle: saline 120 % of control

CSP(N)(N)=O
inactive: dose: 5.0 mg/kg/injection, schedule: Q01DX001 (ip), vehicle: saline 97 % of control | dose: 10.0 mg/kg/injection, schedule: Q01DX001 (ip), vehicle: saline 103 % of control

O=C(O)CCC1NC(=O)NC1=O (stereo not drawn)
inactive: [1] 96 % of control | [2] 96 % of control | [15] 91 % of control

CC(=O)C1=CC(=O)c2ccccc2C1=O
inactive: dose: 20.0 mg/kg/injection, schedule: Q01DX001 (ip), vehicle: water 103 % of control | dose: 40.0 mg/kg/injection, schedule: Q01DX001 (ip), vehicle: water 95 % of control | dose: 80.0 mg/kg/injection, schedule: Q01DX001 (ip), vehicle: water 93 % of control

O=CNc1ccccc1[N+](=O)[O-]
inactive: [4] 94 % of control | [5] 94 % of control

CC12CCN=C1c1ccc3cc(O)ccc3c1CC2 (stereo not drawn)
inactive: dose: 100.0 mg/kg/injection, schedule: Q04DX003 (sc), vehicle: steriod suspending solution 93 % of control | dose: 200.0 mg/kg/injection, schedule: Q04DX003 (sc), vehicle: steriod suspending solution 107 % of control | dose: 400.0 mg/kg/injection, schedule: Q04DX003 (sc), vehicle: steriod suspending solution 96 % of control

CCCCCCCC(Cc1ccccc1)C(N)=O (stereo not drawn)
inactive: [1] 97 % of control | [2] 92 % of control | [15] 92 % of control
